Source: patent US5462935A, “Cephalosporin compounds” (Lucky Limited, priority 1990, dated 1995)
Values after ≈ are worked out from the molar mass of the structure shown. Like-named read-outs stand apart in the source and are kept apart here.

What was measured:
[1] = test system: ATCC 12228; assay: minimal inhibitory concentration, two-fold agar dilution; assay type: cell-based; conditions: Staphylococcus faecalis, ATCC12228, 20 h
Method in brief: (§1)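 Each strain, prepared at 10^7 CFU/ml, was inoculated onto Mueller-Hinton agar with a two-fold compound dilution series; growth was assessed following 20 hours' incubation at 37° C.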

[2] = test system: Acinetobacter calcoaceticus ATCC 15473; assay: as above; assay type: cell-based; conditions: ATCC15473, Muller-Hinton agar, 37° C., 20 hours
Method in brief: (§2)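 Incubation lasts 20 hours at 37° C after the standard strain (10^7 CFU/ml) is spotted onto Mueller-Hinton agar carrying two-fold dilutions of compound.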

[3] = test system: Bacillus cereus ATCC 11778; assay: as above; assay type: cell-based; conditions: Bacillus cereus, ATCC11778, 20 h
Method in brief: as §2

[4] = test system: Bacillus megaterium ATCC 9885; assay: as above; assay type: cell-based; conditions: Priestia megaterium, ATCC9885, 20 h
Method in brief: as §2

[5] = test system: Citrobacter freundii ATCC 8090; assay: as above; assay type: cell-based; conditions: ATCC8090, Muller-Hinton agar, 37° C., 20 hours
Method in brief: as §2

[6] = test system: Enterobacter aerogenes ATCC 29751; assay: as above; assay type: cell-based; conditions: Klebsiella aerogenes, ATCC29751, 20 h
Method in brief: as §2

[7] = test system: Enterobacter cloacae ATCC 27508; assay: as above; assay type: cell-based; conditions: ATCC27508, Muller-Hinton agar, 37° C., 20 hours
Method in brief: as §2

[8] = test system: Escherichia coli ATCC 10536; assay: as above; assay type: cell-based; conditions: ATCC10536, Muller-Hinton agar, 37° C., 20 hours
Method in brief: as §2

[9] = test system: Escherichia coli ATCC 25922; assay: as above; assay type: cell-based; conditions: ATCC25922, Muller-Hinton agar, 37° C., 20 hours
Method in brief: as §2

[10] = test system: Klebsiella pneumoniae ATCC 10031; assay: as above; assay type: cell-based; conditions: ATCC10031, Muller-Hinton agar, 37° C., 20 hours
Method in brief: as §2

[11] = test system: Micrococcus luteus ATCC 9341; assay: as above; assay type: cell-based; conditions: ATCC9341, Muller-Hinton agar, 37° C., 20 hours
Method in brief: as §2

[12] = test system: Morganella morganii ATCC 8076h; assay: as above; assay type: cell-based; conditions: ATCC8076H, 20 h
Method in brief: as §1

[13] = test system: Proteus mirabilis ATCC 25933; assay: as above; assay type: cell-based; conditions: ATCC25933, Muller-Hinton agar, 37° C., 20 hours
Method in brief: as §2

[14] = test system: Proteus vulgaris ATCC 6059; assay: as above; assay type: cell-based; conditions: ATCC6059, Muller-Hinton agar, 37° C., 20 hours
Method in brief: as §2

[15] = test system: Providencia rettgeri ATCC 9250; assay: as above; assay type: cell-based; conditions: ATCC9250, Muller-Hinton agar, 37° C., 20 hours
Method in brief: as §2

[16] = test system: Pseudomonas aeruginosa ATCC 25619; assay: as above; assay type: cell-based; conditions: ATCC25619, Muller-Hinton agar, 37° C., 20 hours
Method in brief: as §2

[17] = test system: Pseudomonas aerugionsa ATCC 10145; assay: as above; assay type: cell-based; conditions: ATCC10145, Muller-Hinton agar, 37° C., 20 hours
Method in brief: as §2

[18] = test system: Pseudomonas aerugionsa ATCC 27853; assay: as above; assay type: cell-based; conditions: ATCC27853, Muller-Hinton agar, 37° C., 20 hours
Method in brief: as §2

[19] = test system: Salmonella typhimurium ATCC 14028; assay: as above; assay type: cell-based; conditions: Salmonella enterica, Muller-Hinton agar, 37° C., 20 hours
Method in brief: as §2

[20] = test system: Serratia marcescens ATCC 27117; assay: as above; assay type: cell-based; conditions: ATCC27117, Muller-Hinton agar, 37° C., 20 hours
Method in brief: as §2

[21] = test system: Shigella flexneri ATCC 11836; assay: as above; assay type: cell-based; conditions: ATCC11836, Muller-Hinton agar, 37° C., 20 hours
Method in brief: as §2

[22] = test system: Shigella sonnei ATCC 11060; assay: as above; assay type: cell-based; conditions: ATCC11060, Muller-Hinton agar, 37° C., 20 hours
Method in brief: as §2

[23] = test system: Staphylococcus aureus ATCC 6638p; assay: as above; assay type: cell-based; conditions: ATCC6638P, 20 h
Method in brief: as §1

[24] = test system: Staphylococcus epidermidis ATCC 10537; assay: as above; assay type: cell-based; conditions: ATCC10537, Muller-Hinton agar, 37° C., 20 hours
Method in brief: as §2

[25] = test system: Streptococcus faecalis ATCC 29212; assay: as above; assay type: cell-based; conditions: Enterococcus faecalis, ATCC29212, Muller-Hinton agar, 37° C., 20 hours
Method in brief: as §2

[26] = acute toxicity test, intravenous; conditions: mouse, in vivo, ICR mice, observed for 14 days
Description: The results are shown in the last row of Table 2.

[27] = in vivo absorbency test (plasma concentration, pharmacokinetic parameters); parameters: species or system SD rats (male); conditions: rat, iv, 20 mg/kg, rats
Description: In addition to the in vitro tests described above, in vivo absorbency tests for the two selected compounds of formulas (I-S-1) and (I-R-1), along with Ceftadizime, were carried out by administering intravenously, in a dose of 20 mg/kg, each of these two compounds into SD rats (male) weighing 220 to 340 g; […], which were analyzed by employing the bio-assay or agar well method. About 10 to 15 rats were used for each of the compounds.
Notes: (1) Two-Compartment Model
(3) Tested Animal: Rats(male; 220-340 g)

In the case of `C[C@H](O/N=C(\C(=O)NC1C(=O)N2C(C(=O)[O-])=C(CSc3nc(N)cc(N)[n+]3N)CS[C@H]12)c1csc(N)n1)C(=O)O` (stereo partly drawn) [I-S-1, 7-[(Z)-2-(2-aminothiazol-4-yl)-2-[(S)-1-carboxyeth-1-oxyimino]acetamido]-3-[(1,4,6-triaminopyrimidinium-2-yl)thiomethyl]-3-cephem-4-carboxylate], the MIC [1] is reported as 2 µg/mL (≈ 3.28 µM), the MIC [2] is reported as 2 µg/mL (≈ 3.28 µM) and the MIC [3] is reported as 32 µg/mL (≈ 52.4 µM). It also gave an MIC [4] of 0.13 µg/mL (≈ 0.213 µM), an MIC [5] of 0.031 µg/mL (≈ 0.0508 µM) and an MIC [6] of 0.5 µg/mL (≈ 0.819 µM). For the same compound, the MIC [7] was 0.016 µg/mL (≈ 0.0262 µM), the MIC [8] was 0.031 µg/mL (≈ 0.0508 µM) and the MIC [9] was 0.031 µg/mL (≈ 0.0508 µM). For the same compound, the MIC [10] was 0.031 µg/mL (≈ 0.0508 µM), the MIC [11] was 0.25 µg/mL (≈ 0.409 µM) and the MIC [12] was ≤ 0.008 µg/mL. The MIC [13] was 0.016 µg/mL (≈ 0.0262 µM), the MIC [14] was 0.016 µg/mL (≈ 0.0262 µM) and the MIC [15] was ≤ 0.008 µg/mL. For the same compound, the MIC [16] was 0.5 µg/mL (≈ 0.819 µM), the MIC [17] was 1 µg/mL (≈ 1.64 µM) and the MIC [18] was 0.5 µg/mL (≈ 0.819 µM). For the same compound, the MIC [19] was 0.063 µg/mL (≈ 0.103 µM), the MIC [20] was 0.031 µg/mL (≈ 0.0508 µM) and the MIC [21] was 0.016 µg/mL (≈ 0.0262 µM). The MIC [22] was 0.031 µg/mL (≈ 0.0508 µM), the MIC [23] was 4 µg/mL (≈ 6.55 µM) and the MIC [24] was 2 µg/mL (≈ 3.28 µM). For the same compound, the MIC [25] was > 128 µg/mL, the LD50 at 336 h [26] was > 5000 mg/kg and the half-life ([27]; plasma, Two-Compartment Model, read-out: T1/1(β)) was 37.5 min. It also gave a half-life ([27]; plasma, Two-Compartment Model, read-out: T1/2(α)) of 7.6 min, a concentration at 1 min ([27]; plasma, 1 min, read-out: Plasma Conc.) of 147000 ng/mL and a concentration at 2.5 min ([27]; plasma, 2.5 min, read-out: Plasma Conc.) of 102000 ng/mL. It also gave a concentration at 5 min ([27]; plasma, 5 min, read-out: Plasma Conc.) of 72600 ng/mL, a concentration at 10 min ([27]; plasma, 10 min, read-out: Plasma Conc.) of 57300 ng/mL and a concentration at 20 min ([27]; plasma, 20 min, read-out: Plasma Conc.) of 37000 ng/mL. It also gave a concentration at 40 min ([27]; plasma, 40 min, read-out: Plasma Conc.) of 19600 ng/mL, a concentration at 1 h ([27]; plasma, 60 min, read-out: Plasma Conc.) of 11200 ng/mL and a concentration at 2 h ([27]; plasma, 120 min, read-out: Plasma Conc.) of 3100 ng/mL. It also gave a concentration at 3 h ([27]; plasma, 180 min, read-out: Plasma Conc.) of 1500 ng/mL, an AUC ([27]; plasma, Two-Compartment Model, read-out: ACU (converted)) of 47700 ng·h/mL and a dose excreted ([27]; urine, read-out: Urinary recovery) of 93%.

Work on `Cc1c(N)nc(SCC2=C(C(=O)[O-])N3C(=O)C(NC(=O)/C(=N\O[C@H](C)C(=O)O)c4csc(N)n4)[C@H]3SC2)[n+](N)c1N` (stereo partly drawn) [I-R-7, 7-[(Z)-2-(2-aminothiazol-4-yl)-2-[(R)-1-carboxyeth-1-oxyimino]acetamido]-3-[(5-methyl-1,4,6-triaminopyrimidinium-2-yl)thiomethyl]-3-cephem-4-carboxylate] yielded an MIC [1] of 2 µg/mL (≈ 3.2 µM), an MIC [2] of 4 µg/mL (≈ 6.4 µM) and an MIC [3] of 128 µg/mL (≈ 205 µM). It also gave an MIC [4] of 0.5 µg/mL (≈ 0.8 µM), an MIC [5] of 0.13 µg/mL (≈ 0.208 µM) and an MIC [6] of 2 µg/mL (≈ 3.2 µM). It also gave an MIC [7] of 0.063 µg/mL (≈ 0.101 µM), an MIC [8] of 0.063 µg/mL (≈ 0.101 µM) and an MIC [9] of 0.063 µg/mL (≈ 0.101 µM). The MIC [10] was 0.063 µg/mL (≈ 0.101 µM), the MIC [11] was 0.5 µg/mL (≈ 0.8 µM) and the MIC [12] was ≤ 0.008 µg/mL. For the same compound, the MIC [13] was 0.031 µg/mL (≈ 0.0496 µM), the MIC [14] was 0.063 µg/mL (≈ 0.101 µM) and the MIC [15] was ≤ 0.008 µg/mL. It also gave an MIC [16] of 2 µg/mL (≈ 3.2 µM), an MIC [17] of 2 µg/mL (≈ 3.2 µM) and an MIC [18] of 2 µg/mL (≈ 3.2 µM). For the same compound, the MIC [19] was 0.25 µg/mL (≈ 0.4 µM), the MIC [20] was 0.13 µg/mL (≈ 0.208 µM) and the MIC [21] was 0.031 µg/mL (≈ 0.0496 µM). It also gave an MIC [22] of 0.063 µg/mL (≈ 0.101 µM), an MIC [23] of 4 µg/mL (≈ 6.4 µM) and an MIC [24] of 2 µg/mL (≈ 3.2 µM). For the same compound, the MIC [25] was > 128 µg/mL and the LD50 at 336 h [26] was > 5000 mg/kg.

Compound `CC[n+]1c(N)cc(N)nc1SCC1=C(C(=O)[O-])N2C(=O)C(NC(=O)/C(=N\O[C@H](C)C(=O)O)c3csc(N)n3)[C@H]2SC1` (stereo partly drawn) [I-R-3, 7-[(Z)-2-(2-aminothiazol-4-yl)-2-[(R)-1-carboxyeth-1-oxyimino]acetamido]-3-[(4,6-diamino-1-ethylpyrimidinium-2-yl)thiomethyl]-3-cephem-4-carboxylate] has an MIC [1] of 1 µg/mL (≈ 1.6 µM), an MIC [2] of 4 µg/mL (≈ 6.41 µM) and an MIC [3] of 128 µg/mL (≈ 205 µM). The MIC [4] was 1 µg/mL (≈ 1.6 µM), the MIC [5] was 0.063 µg/mL (≈ 0.101 µM) and the MIC [6] was 0.5 µg/mL (≈ 0.802 µM). For the same compound, the MIC [7] was 0.016 µg/mL (≈ 0.0257 µM), the MIC [8] was 0.063 µg/mL (≈ 0.101 µM) and the MIC [9] was 0.063 µg/mL (≈ 0.101 µM). For the same compound, the MIC [10] was 0.031 µg/mL (≈ 0.0497 µM), the MIC [11] was 0.25 µg/mL (≈ 0.401 µM) and the MIC [12] was ≤ 0.008 µg/mL. For the same compound, the MIC [13] was 0.031 µg/mL (≈ 0.0497 µM), the MIC [14] was 0.031 µg/mL (≈ 0.0497 µM) and the MIC [15] was ≤ 0.008 µg/mL. For the same compound, the MIC [16] was 1 µg/mL (≈ 1.6 µM), the MIC [17] was 2 µg/mL (≈ 3.21 µM) and the MIC [18] was 1 µg/mL (≈ 1.6 µM). It also gave an MIC [19] of 0.13 µg/mL (≈ 0.208 µM), an MIC [20] of 0.063 µg/mL (≈ 0.101 µM) and an MIC [21] of 0.031 µg/mL (≈ 0.0497 µM). It also gave an MIC [22] of 0.031 µg/mL (≈ 0.0497 µM), an MIC [23] of 2 µg/mL (≈ 3.21 µM) and an MIC [24] of 2 µg/mL (≈ 3.21 µM). The MIC [25] was > 128 µg/mL and the LD50 at 336 h [26] was > 3000 mg/kg.
